Entries after “also recorded” stand apart in the source; their conditions may differ.
What was measured:
NAD metabolome [1] = assay: NR-SAFE: LC-MS metabolomics of whole blood and urine; format: in vivo, human
Description: Sample analysis was carried out by MS-Omics (Vedbok, Denmark) as follows: Polar metabolite profiling of whole blood and urine was performed using a Thermo Scientific Vanquish LC coupled to Thermo Q Exactive HF MS. An electrospray ionization interface was used as ionization source. Analysis was performed in negative and positive ionization mode. The UPLC was performed using a slightly modified version of the protocol described by Hsiao et al. 2018^14. Peak areas were extracted using Compound Discoverer 3.3 (Thermo Scientific). 14 Hsiao, J. J., Potter, O. G., Chu, T. W. & Yin, H. Improved LC/MS Methods for the Analysis of Metal-Sensitive Analytes Using Medronic Acid as a Mobile Phase Additive. Anal Chem 90, 9457-9464 (2018).
Semi-polar metabolite analysis of whole blood was carried out using a Thermo Scientific Vanquish LC coupled to Orbitrap Exploris 240 MS, Thermo Fisher Scientific. An electrospray ionization interface was used as ionization source. Analysis was performed in positive and negative ionization mode under polarity switching. The UPLC was performed using a slightly modified version of the protocol described by Doneanu et al., 2011^15. Peak areas were extracted using Compound Discoverer 3.3 (Thermo Scientific). 15 Doneanu, C. E. UPLC/MS Monitoring of Water-Soluble Vitamin Bs in Cell Culture Media in Minutes (Application note). https://www.waters.com/waters/library.htm?locale=en US&lid=134636355 (2011).
Identification of compounds for both methods was performed at four levels; Level 1: identification by retention times (compared against in-house authentic standards), accurate mass (with an accepted deviation of 3 ppm), and MS/MS spectra; Level 2a: identification by retention times (compared against in-house authentic standards), accurate mass (with an accepted deviation of 3 ppm). Level 2b: identification by accurate mass (with an accepted deviation of 3 ppm), and MS/MS spectra, Level 3: identification by accurate mass alone (with an accepted deviation of 3 ppm).

[2] = NR-SAFE: clinical laboratory values from blood samples (serum); format: in vivo, human
Description: Analysis of clinical laboratory values from blood samples was performed by the Department of Medical Biochemistry and Pharmacology (MBF) at Haukeland University Hospital, Bergen, Norway.

blood NAD levels = details: cited from earlier work
NAD metabolome [3] = assay: NR-SAFE: NAD and glutathione metabolites in frozen whole blood (NADMed assay); format: in vivo, human
Description: Analysis was carried out by NADMed (Helsinki, Finland; www.nadmed.com). NAD and glutathione metabolites were extracted from frozen blood in a single step using a proprietary extraction procedure, and each metabolite was measured individually using optimized cyclic enzymatic assays with colorimetric detection.

Parkinson's Disease (PD) = assay: NADPARK: clinical severity by MDS-UPDRS; format: in vivo, human
Description: The present inventors completed a phase I randomized, double blinded trial, aiming to assess the tolerability, cerebral bioavailability and molecular effects of NR therapy in PD. A total of 30 individuals with newly diagnosed, drug-naïve PD were randomized to NR 500 mg×2/day or placebo for 30 days (Cell Metab. 2022 Mar. 1; 34(3):396-407.e6).
NR is associated with clinical improvement of PD. NR at 1000 mg daily was associated with a significant decrease in the total MDS-UPDRS (I-III) score between visits (mean decrease: 2.33±2.35; paired t-test: p=0.017).

NAD metabolome [4] = assay: NADPARK: metabolomics, RNA-sequencing and cytokines in blood, muscle, CSF; format: in vivo, human; details: NR 1000 mg daily
Description: A-C: 31P-MRS was performed at baseline (v1) and after 30 days of treatment (v2). A: exemplary data from one subject showing voxel position. Spectra were acquired for each grid position. B (top): average processed spectra from multiple voxels (black) and the model fit (red). B (bottom): the model fit is composed of the convolution of all spectral contributions of a simulated dataset fitted to the experimental data. […] PCr: phosphocreatine. C: comparison of cerebral NAD levels in the placebo (PL) and NR groups at baseline (v1) and visit-2 (v2). […] Individual subjects are indicated by dots. Connecting lines show the change between v1 and v2. The black points and lines show the mean of each group. […] D: FDG-PET data from all subjects in the NR-group, showing the mean NR-Related Pattern (NRRP, top panel), PD-related pattern (PRDP, middle panel), and the overlap of the two (bottom panel). NR partially ameliorates the striatal and thalamic hypermetabolism of PD. E: Between visit changes showing increased NRRP expression in the NR versus the placebo group. The red line indicates mean values before and after the treatment, black lines indicate individuals with a positive NAD response in the MRS analysis, grey lines indicate individuals without an NAD response in the MRS (*p=0.027, permutation test, 1000 iterations). […] G: Metabolomics in PBMCs, muscle, and CSF.
NR has widespread metabolic and regulatory effects. […] These findings indicate that NR supplementation increases both mitochondrial respiration and proteostasis—two hallmark pathogenic processes involved in PD.

adult humans = details: cited from earlier work
[5] = LC-MS, V1 to V7, 3000 mg NR daily
[6] = LC-MS, V1 to V7, NR group, 3000 mg NR daily
[7] = NADMed assay, V1 to V7, 3000 mg NR daily

**Q.** With `NC(=O)c1ccc[n+]([C@@H]2O[C@H](CO)[C@@H](O)[C@H]2O)c1` [NR, nicotinamide riboside] as the molecule, how does the “urine NAD-related metabolites (NAR, Nam, Me-Nam, Me-2-PY, Nam N-oxide)” value (NAD metabolome [1]; [5]) read?
**A.** increase in several NAD-related metabolites

**Q.** And the “whole blood ADP-ribose (ADPR)” value (NAD metabolome [1]; [5])?
**A.** increase in NAD-derived signaling molecules such as ADP-ribose (ADPR)

**Q.** And the “whole blood ATP, GTP, ADP, AMP, adenosine and GDP” value (NAD metabolome [1]; [5])?
**A.** unchanged

**Q.** What about the “whole blood Nam, Nam N-oxide, Me-Nam, Me-2-PY” value (NAD metabolome [1]; [5]) of the same molecule?
**A.** increased as well

**Q.** What about the “whole blood nicotinamide mononucleotide (NMN)” value (NAD metabolome [1]; [5]) of the same molecule?
**A.** elevated levels

**Q.** And the “whole blood nicotinic acid adenine dinucleotide (NAAD)” value (NAD metabolome [1]; [5])?
**A.** elevated

**Q.** What about the “NR itself in urine” value (NAD metabolome [1]; [6]) of the same molecule?
**A.** did not change significantly

**Q.** What about the “NR itself in whole blood” value (NAD metabolome [1]; [6]) of the same molecule?
**A.** did not increase

**Q.** And the “whole blood HCy, SAM, SAH, SAM/SAH ratio, methionine” value (NAD metabolome [1]; LC-MS, V1 vs V7, 3000 mg NR daily)?
**A.** did not detect a change

**Q.** And the “depletion of the methyl-group pool” value (NAD metabolome [1]; NR 3000 mg for 4 weeks)?
**A.** does not cause depletion of the methyl-group pool

**Q.** What about the “whole blood NAD^+ and NADP^+ levels” value (NAD metabolome [1]; targeted LC-MS, V1 to V7, 3000 mg NR daily) of the same molecule?
**A.** significant increase in whole blood NAD^+ and NADP^+ levels

**Q.** What about the “whole blood homocysteine (HCy)” value (NAD metabolome [1]; targeted metabolomics, V1 vs V7, 3000 mg NR daily) of the same molecule?
**A.** did not show any HCy elevation

**Q.** What about the “whole blood methionine levels” value (NAD metabolome [1]; untargeted metabolomics, 3000 mg NR daily) of the same molecule?
**A.** unaffected

**Q.** And the whole blood betaine (NAD metabolome [1]; untargeted metabolomics, NR group, 3000 mg NR daily)?
**A.** decreased slightly

**Q.** And the “clinical symptoms related to the observed HCy increase” value ([2]; NR 3000 mg daily, 4 weeks)?
**A.** No participants developed any clinical symptoms

**Q.** And the “increase in triglycerides, total cholesterol and LDL” value ([2]; NR 3000 mg daily, 4 weeks)?
**A.** no such effects

**Q.** What about the “serum folic acid, methylmalonic acid and vitamin B12” value ([2]; NR 3000 mg daily, 4 weeks) of the same molecule?
**A.** remained unchanged

**Q.** What about the serum triglyceride levels ([2]; NR group, 3000 mg daily, 4 weeks) of the same molecule?
**A.** nominal trend for a reduction in serum triglyceride levels

**Q.** What about the “change in serum HCy at second visit” value ([2]; V2, day 3 of treatment, vs baseline, NR 3000 mg daily) of the same molecule?
**A.** +2.29±1.72 μmol/L

**Q.** And the “change in serum HCy after second visit until end of study” value ([2]; V2 to V7, NR 3000 mg daily)?
**A.** -0.63 ± 1.76 µmol/L

**Q.** And the “serum HCy levels relative to normal range” value ([2]; most participants, NR 3000 mg daily)?
**A.** remained within normal range

**Q.** And the “change in serum homocysteine levels, last visit vs baseline” value ([2]; Δ V7−V1, NR 3000 mg daily)?
**A.** +1.66±0.63 μmol/L

**Q.** And the “blood NAD levels in a 24h-period after intake” value (blood NAD levels; 1000 mg NR after increasing NR doses twice daily for nine days)?
**A.** stably increased

**Q.** What about the “blood NAD levels 23.8 h after intake” value (blood NAD levels; 1000 mg NR, single subject) of the same molecule?
**A.** decreased, but not yet to baseline

**Q.** What about the “time of peak blood NAD levels after intake” value (blood NAD levels; 1000 mg NR, single subject) of the same molecule?
**A.** 7.7 h

**Q.** And the “increase of blood NAD^+ levels” value (blood NAD levels; 1000 mg or 2000 mg NR daily, reported studies)?
**A.** 1.37-2.8 fold

**Q.** What about the “increase in whole blood NAD^+ levels” value (NAD metabolome [3]; 3000 mg NR daily, 4 weeks) of the same molecule?
**A.** ~3.7 fold

**Q.** What about the “increase in whole blood NAD^+ levels, range” value (NAD metabolome [3]; 3000 mg NR daily, 4 weeks, range across individuals) of the same molecule?
**A.** 1.8-5.8 fold

**Q.** And the “increase in blood NAD^+ levels (maximum)” value (NAD metabolome [3]; 3000 mg NR daily, 4 weeks, summary statement)?
**A.** up to 5 fold

**Q.** And the “whole blood GSH and GSSG” value (NAD metabolome [3]; [7])?
**A.** remained unchanged

**Q.** And the “whole blood NADH level” value (NAD metabolome [3]; [7])?
**A.** marked increase

**Q.** And the “whole blood NADP^+ and total NADP levels” value (NAD metabolome [3]; [7])?
**A.** increase in NADP^+ and total NADP levels

**Q.** And the “whole blood NADP^+/NADPH ratio” value (NAD metabolome [3]; [7])?
**A.** trend towards increased NADP^+/NADPH ratio

**Q.** And the “whole blood NAD^+ level” value (NAD metabolome [3]; [7])?
**A.** marked increase

**Q.** What about the “whole blood NAD^+/NADH ratio” value (NAD metabolome [3]; [7]) of the same molecule?
**A.** overall elevated NAD^+/NADH ratio

**Q.** And the “mean decrease in total MDS-UPDRS (I-III) score between visits” value (Parkinson's Disease (PD); NR 1000 mg daily, as stated in first sentence)?
**A.** 2.33±2.35

**Q.** And the “change in MDS-UPDRS (total or subsections I-III)” value (Parkinson's Disease (PD); NR 1000 mg daily, whole NR group)?
**A.** No significant change

**Q.** What about the “mean decrease in MDS-UPDRS” value (Parkinson's Disease (PD); nine individuals showing >10% increase in cerebral NAD levels) of the same molecule?
**A.** 2.33±2.35

**Q.** And the “mean decrease in MDS-UPDRS” value (Parkinson's Disease (PD); subgroup of ten NR-recipients with increased cerebral NAD levels)?
**A.** 1.9±2.78

**Q.** And the “NAD-related metabolites in blood (PBMC), muscle and CSF” value (NAD metabolome [4]; 30 days, metabolomics)?
**A.** highly significant (p<<0.001 for all tests) increases in the acid form of NAD (NAAD), and nicotinamide (Nam) degradation products; also recorded: highly significant increase in NAD-related metabolites in blood, muscle and CSF

**Q.** And the “RNA-sequencing in blood and muscle biopsy” value (NAD metabolome [4]; NR group)?
**A.** highly significant (FDR<10^−8) upregulation of the mitochondrial, proteasomal and lysosomal pathways

**Q.** What about the “inflammatory cytokines in the central nervous system” value (NAD metabolome [4]; Phase I study) of the same molecule?
**A.** downregulates multiple inflammatory cytokines in the central nervous system

**Q.** What about the “triglycerides, total cholesterol and LDL” value (adult humans; NR at lower doses, e.g., in combination with pterostilbene) of the same molecule?
**A.** mild increase in triglycerides, total cholesterol and LDL

**Q.** And the “tolerability in adult humans” value (adult humans; doses up to at least 2000 mg daily)?
**A.** well tolerated with no evidence of toxicity

Source: patent publication US20250275995A1, “NICOTINAMIDE RIBOSIDE DOSAGE REGIMEN FOR TREATING PARKINSON'S DISEASE” (VESTLANDETS INNOVASJONSSELSKAP AS (VIS), priority 2022, published 2025)
